Data reported in patent US6096779A, “Amorphous piretanide, piretanide polymorphs, process for their preparation and their use” (Hoechst Pharmaceuticals & Chemicals K.K., priority 1995, dated 2000).
In brackets after ≈: the same amount, converted by molar mass. Read-outs that look alike come from different tables or passages of the source.

What was measured:
[1] = Solubility in buffers at various pH values by dissolution tester, absorbance at 275 nm, 37° C.; format: physicochemical; details: for solubility in a buffer at a pH value of 1: pH 1, potassium chloride-hydrochloric acid buffer
Protocol: The amorphous piretanide obtained as described in Example 1 was analyzed for solubility in a buffer at various pH values by means of a dissolution tester, using piretanide form A as a control.
(§1) A sufficient amount of the amorphous piretanide to ensure supersaturation was added to 500 ml each of the buffers at various pH values as indicated below, and about 10 ml of a solution was sampled at appropriate intervals and filtered using a 0.45 μm filter. About 5 ml of the initial solution was discarded and the remainder was used as a sample solution and, if required, diluted with the same buffer. Solubility was determined by absorbance at 275 nm.
Buffer: pH 1 Potassium chloride-hydrochloric acid system
pH 3 Sodium chloride-glycine-hydrochloric acid system
pH 6.8 JP XII, second fluid
Solution temperature: 37° C.
The piretanide polymorph obtained as described in Example 6 was analyzed for solubility in a buffer at various pH values by means of a dissolution tester, using piretanide form A as a control.
as §1, with “buffer, if necessary, solubility” for “buffer. Solubility”

[2] = cited from earlier work; for solubility in a buffer at a pH value of 3: pH 3, 37° C.; for solubility at a pH value of 6.8: pH 6.8, 37° C.
[3] = Solubility in buffers at various pH values by dissolution tester, absorbance at 275 nm, 37° C.; format: physicochemical; details: pH 1, 37° C., vs piretanide form B
[4] = pH 3, sodium chloride-glycine-hydrochloric acid buffer

| Structure (SMILES) | solubility in a buffer at a pH value of 1 [1] [mg/100 ml] | solubility in a buffer at a pH value of 3 [1, 4] [mg/100 ml] | solubility in a buffer at a pH value of 6.8 ([1]; pH 6.8, JP XII second fluid) [mg/100 ml] | solubility ([1]; jp xii second fluid, pH 6.8, pH 6.8, JP XII second fluid, read-out: solubility in a buffer at a pH value of 6.8 (control, unit as printed)) [µg/mL] | solubility in a buffer at a pH value of 1 ([2]; pH 1, 37° C., background) [mg/100 ml] | solubility in a buffer at a pH value of 3 ([2]; background) [mg/100 ml] | solubility at a pH value of 6.8 ([2]; background) [mg/100 ml] | water solubility ([2]; water, 20° C.) [mg/100 ml] | solubility ([1]; jp xii second fluid, pH 6.8, pH 6.8, JP XII second fluid, read-out: solubility in a buffer at a pH value of 6.8) [µg/mL] | solubility ([1]; nacl-glycine-hcl buffer, pH 3, aqueous buffer, pH 3, sodium chloride-glycine-hydrochloric acid buffer, read-out: solubility in a buffer at a pH value of 3) [µg/mL] | solubility compared with piretanide form B, pH 1 (in words) [3] |
| --- | --- | --- | --- | --- | --- | --- | --- | --- | --- | --- | --- |
| NS(=O)(=O)c1cc(C(=O)O)cc(N2CCCC2)c1Oc1ccccc1 [amorphous piretanide, 4-phenoxy-3-(1-pyrrolidinyl)-5-sulfamoyl-benzoicacid] | 15.2 | 6.5 | 901.3 | – | – | – | – | – | – | – | – |
| NS(=O)(=O)c1cc(C(=O)O)cc(N2CCCC2)c1Oc1ccccc1 [piretanide form A, 4-phenoxy-3-(1-pyrrolidinyl)-5-sulfamoyl-benzoicacid] | 7.5 | 4.2 | – | 1940 (≈ 5.35 mM) | 7.5 | 4.2 | 193.8 | 7.9 | – | – | – |
| NS(=O)(=O)c1cc(C(=O)O)cc(N2CCCC2)c1Oc1ccccc1 [piretanide form B, 4-phenoxy-3-(1-pyrrolidinyl)-5-sulfamoyl-benzoicacid] | – | – | – | – | – | 6.4 | 195.4 | – | – | – | – |
| NS(=O)(=O)c1cc(C(=O)O)cc(N2CCCC2)c1Oc1ccccc1 [piretanide polymorph, 4-phenoxy-3-(1-pyrrolidinyl)-5-sulfamoyl-benzoicacid] | 12.2 | – | – | – | – | – | – | – | 9270 (≈ 25.6 mM) | 67 (≈ 0.185 mM) | approximately similar solubility to that of piretanide form B |
